From patent US11685732B2, “MYST family histone acetyltransferase inhibitors” (Epizyme, Inc., priority 2017, dated 2023)

target: KAT-5 (Homo sapiens (Human), UniProt Q92993); assay: KAT-5 biochemical inhibition assay (SAMDI mass spectrometry); conditions: not given
Description: (§1) KAT-5. Enzyme assay buffer was 50 mM Tris pH 8.0, 0.002% Tween20, 0.005% bovine skin gelatin, and 1 mM dithiothreitol (DTT). For determination of IC50 values, compounds were serially diluted with 2% (v/v) DMSO in the final reaction, pre-incubating each dilution of each compound with 40 μL of assay buffer containing KAT-5 enzyme (9 nM final concentration). 10 μL of assay buffer containing 1 μM peptide substrate and 0.5 μM acetyl coenzyme A (final concentrations) was added. Reactions (50 μL total) were then carried out at 25° C. for 90 minutes. Reactions were terminated by the addition of 0.5% formic acid (final concentration), and a sample of each reaction was analyzed by SAMDI Tech, Inc. (Chicago, Ill.) using self-assembled monolayer desorption/ionization time-of-flight mass spectrometry (Mrksich, M. (2008) Mass spectrometry of self-assembled monolayers: a new tool for molecular surface science. ACS Nano 2, 7-18).

KAT-5, sequence (Q92993 other isoform, or with tags, fused parts or gaps): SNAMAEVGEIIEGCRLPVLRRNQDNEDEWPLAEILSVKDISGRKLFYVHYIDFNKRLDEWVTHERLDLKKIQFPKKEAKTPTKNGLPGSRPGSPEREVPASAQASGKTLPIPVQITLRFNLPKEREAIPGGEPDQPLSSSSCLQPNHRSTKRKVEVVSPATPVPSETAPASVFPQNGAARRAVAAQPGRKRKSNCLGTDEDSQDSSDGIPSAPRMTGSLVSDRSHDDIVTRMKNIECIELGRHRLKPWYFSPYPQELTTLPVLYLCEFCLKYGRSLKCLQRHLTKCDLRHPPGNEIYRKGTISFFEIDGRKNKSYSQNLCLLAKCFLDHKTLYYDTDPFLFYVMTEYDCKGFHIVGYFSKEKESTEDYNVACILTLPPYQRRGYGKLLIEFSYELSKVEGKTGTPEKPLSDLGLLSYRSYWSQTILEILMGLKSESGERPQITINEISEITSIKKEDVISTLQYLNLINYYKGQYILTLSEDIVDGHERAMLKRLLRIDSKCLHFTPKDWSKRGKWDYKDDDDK

| SMILES | IC50 [µM] |
| --- | --- |
| Cn1cnc(-c2cc(Cl)c(F)c(C(=O)NNS(=O)(=O)Cc3ccnn3C)c2)c1 [Compound I-482] | 10 to 50 |
| Cn1cnc(-c2cc(Cl)c(F)c(C(=O)NNS(=O)(=O)Cc3c(Cl)cnn3C)c2)c1 [Compound I-477] | < 10 |
| COc1cnc(S(=O)(=O)NNC(=O)c2cc(-c3cn(C)cn3)cc(Cl)c2F)c(F)c1 [Compound I-468] | < 10 |
| COc1ccc(S(=O)(=O)NNC(=O)c2cc(-c3cn(C)cn3)cc(Cl)c2F)c(F)c1OCc1ccccc1 [Compound I-462] | 10 to 50 |
| Cn1cnc(-c2cc(Cl)c(F)c(C(=O)NNS(=O)(=O)CC3CNCCN3)c2)c1 (centres unmarked) [Compound I-472] | > 100 |

same assay, conditions: Table 5

| SMILES | IC50 [µM] |
| --- | --- |
| Cc1cccc(-c2cc(Cl)c(F)c(C(=O)NNS(=O)(=O)CCCN(C)Cc3ccccc3)c2)c1 [Compound A-18] | > 100 |
| Cc1cccc(-c2cc(Cl)c(F)c(C(=O)NNS(=O)(=O)CC3CN(C)CCO3)c2)c1 (centres unmarked) [Compound A-11] | ≤ 10 |

target: KAT-6A (Homo sapiens (Human), UniProt Q92794); assay: KAT-6A biochemical inhibition assay (SAMDI mass spectrometry); conditions: not given
Sequence (Q92794 other isoform, or with tags, fused parts or gaps): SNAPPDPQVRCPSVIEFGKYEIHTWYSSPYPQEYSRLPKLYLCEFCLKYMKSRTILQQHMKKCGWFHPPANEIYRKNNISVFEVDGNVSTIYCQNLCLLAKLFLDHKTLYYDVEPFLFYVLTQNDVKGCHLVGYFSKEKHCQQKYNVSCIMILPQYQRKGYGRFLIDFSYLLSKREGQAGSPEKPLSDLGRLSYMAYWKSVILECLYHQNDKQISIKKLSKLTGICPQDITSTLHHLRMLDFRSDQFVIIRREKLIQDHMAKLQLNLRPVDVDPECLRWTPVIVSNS
Description: as §1, with “KAT-6A. Enzyme” for “KAT-5. Enzyme”, “containing KAT-6A” for “containing KAT-5”, “enzyme (12.5” for “enzyme (9”, “and 1” for “and 0.5”

| SMILES | IC50 [µM] |
| --- | --- |
| COCCOc1ccc(S(=O)(=O)NNC(=O)c2cc(-c3cn(C)cn3)cc(Cl)c2F)c(F)c1 [Compound I-440] | < 10 |
| CC([C@H]1CC[C@H](N)CC1)S(=O)(=O)NNC(=O)c1cc(-c2cn(C)cn2)cc(Cl)c1F (some centres unmarked) [Compound I-449] | > 100 |
| Cn1cnc(-c2cc(Cl)c(F)c(C(=O)NNS(=O)(=O)c3cccc(O)c3F)c2)c1 [Compound I-444] | < 10 |
| Cn1cnc(-c2cc(Cl)c(F)c(C(=O)NNS(=O)(=O)c3ccc(Cl)cc3F)c2)c1 [Compound I-438] | < 10 |
| Cn1cnc(-c2cc(Cl)c(F)c(C(=O)NNS(=O)(=O)Cc3ccnn3C)c2)c1 [Compound I-482] | 10 to 50 |
| CNCCOc1ccc(S(=O)(=O)NNC(=O)c2cc(-c3cn(C)cn3)cc(Cl)c2F)cc1 [Compound I-422] | > 100 |
| Cn1cnc(-c2cc(Cl)c(F)c(C(=O)NNS(=O)(=O)Cc3c(Cl)cnn3C)c2)c1 [Compound I-477] | 10 to 50 |
| COc1cnc(S(=O)(=O)NNC(=O)c2cc(-c3cn(C)cn3)cc(Cl)c2F)c(F)c1 [Compound I-468] | < 10 |
| COc1ccc(S(=O)(=O)NNC(=O)c2cc(-c3cn(C)cn3)cc(Cl)c2F)c(F)c1OCc1ccccc1 [Compound I-462] | 10 to 50 |
| CCN1CC(CS(=O)(=O)NNC(=O)c2cc(-c3cn(C)cn3)cc(Cl)c2F)CCC1=O (centres unmarked) [Compound I-424] | 10 to 50 |
| Cn1cnc(-c2cc(Cl)c(F)c(C(=O)NNS(=O)(=O)C3CCN(CC(F)(F)F)CC3)c2)c1 [Compound I-445] | 10 to 50 |
| CO[C@H]1CCCC[C@@H]1CS(=O)(=O)NNC(=O)c1cc(-c2cn(C)cn2)cc(Cl)c1F [Compound I-434] | < 10 |
| Cn1cnc(-c2cc(Cl)c(F)c(C(=O)NNS(=O)(=O)c3cc(OCc4ccccc4)ccc3F)c2)c1 [Compound I-450] | < 10 |
| COCCOC1CCCC(CS(=O)(=O)NNC(=O)c2cc(-c3cn(C)cn3)cc(Cl)c2F)C1 (centres unmarked) [Compound I-461] | < 10 |
| COc1cc(F)c(S(=O)(=O)NNC(=O)c2cc(-c3cn(C)cn3)cc(Cl)c2F)c(F)c1 [Compound I-421] | < 10 |
| Cn1cnc(-c2cc(Cl)c(F)c(C(=O)NNS(=O)(=O)CC3CCCN(CC(F)(F)F)C3)c2)c1 (centres unmarked) [Compound I-437] | 10 to 50 |
| Cn1cnc(-c2cc(Cl)c(F)c(C(=O)NNS(=O)(=O)C3CCC4CCC3C4)c2)c1 (centres unmarked) [Compound I-427] | 10 to 50 |
| COc1cnc(Cl)c(S(=O)(=O)NNC(=O)c2cc(-c3cn(C)cn3)cc(Cl)c2F)c1 [Compound I-464] | < 10 |
| CCNC(=O)N[C@H]1CC[C@@H](C(C)S(=O)(=O)NNC(=O)c2cc(-c3cn(C)cn3)cc(Cl)c2F)CC1 (some centres unmarked) [Compound I-454] | < 10 |
| COCCOC1CCC(CS(=O)(=O)NNC(=O)c2cc(-c3cn(C)cn3)cc(Cl)c2F)CC1 (centres unmarked) [Compound I-463] | < 10 |
| Cn1cnc(-c2cc(C(=O)NNS(=O)(=O)CC3CCCCC3)c(F)c(Cl)c2C#N)c1 [Compound I-443] | > 100 |
| CC([C@H]1CC[C@@H](N)CC1)S(=O)(=O)NNC(=O)c1cc(-c2cn(C)cn2)cc(Cl)c1F (some centres unmarked) [Compound I-448] | > 100 |
| Cn1cnc(-c2cc(Cl)c(F)c(C(=O)NNS(=O)(=O)CC3CCN(CC(F)(F)F)CC3)c2)c1 [Compound I-431] | 10 to 50 |
| CCN(C)C(=O)N(C)C1CC(CS(=O)(=O)NNC(=O)c2cc(-c3cn(C)cn3)cc(Cl)c2F)C1 (centres unmarked) [Compound I-425] | 50 to 100 |
| Cn1cnc(-c2cc(Cl)c(F)c(C(=O)NNS(=O)(=O)C3CCN(CC(F)(F)F)C3)c2)c1 (centres unmarked) [Compound I-452] | 10 to 50 |

| SMILES | IC50 [µM] |
| --- | --- |
| Cn1cnc(-c2cc(Cl)c(F)c(C(=O)NNS(=O)(=O)CC3CC3)c2)c1 [Compound I-460] | 10 to 50 |
| CCNC(=O)N[C@H]1CC[C@H](C(C)S(=O)(=O)NNC(=O)c2cc(-c3cn(C)cn3)cc(Cl)c2F)CC1 (some centres unmarked) [Compound I-455] | 10 to 50 |
| COc1ccc(S(=O)(=O)NNC(=O)c2cc(-c3cn(C)cn3)cc(Cl)c2F)c(Cl)c1 [Compound I-426] | 10 to 50 |
| COc1ccc(S(=O)(=O)NNC(=O)c2cc(-c3cn(C)cn3)cc(Cl)c2F)cc1OCc1ccccc1 [Compound I-457] | 10 to 50 |
| Cn1cnc(-c2cc(Cl)c(F)c(C(=O)NNS(=O)(=O)c3cccnc3O)c2)c1 [Compound I-430] | 10 to 50 |
| Cn1cnc(-c2cc(Cl)c(F)c(C(=O)NNS(=O)(=O)CC3CNCCN3)c2)c1 (centres unmarked) [Compound I-472] | > 100 |
| COCCc1cn(Cc2ccc(OC)cc2)cc1-c1cc(Cl)c(F)c(C(=O)NNS(=O)(=O)CC2CCOCC2)c1 [Compound I-436] | > 100 |
| CCOc1ccc(S(=O)(=O)NNC(=O)c2cc(-c3cn(C)cn3)cc(Cl)c2F)c(F)c1 [Compound I-441] | < 10 |
| Cn1cnc(-c2cc(Cl)c(F)c(C(=O)NNS(=O)(=O)C[C@H]3CC[C@H](NCC(F)(F)F)CC3)c2)c1 [Compound I-466] | < 10 |
| COc1cc(F)c(S(=O)(=O)NNC(=O)c2cc(-c3cn(C)cn3)cc(Cl)c2F)cc1OCc1ccccc1 [Compound I-451] | 10 to 50 |
| Cn1cnc(-c2cc(Cl)c(F)c(C(=O)NNS(=O)(=O)c3cccc(OCc4ccccc4)c3F)c2)c1 [Compound I-442] | < 10 |
| COc1cc(F)c(S(=O)(=O)NNC(=O)c2cc(-c3cn(C)cn3)cc(Cl)c2F)cc1O [Compound I-458] | < 10 |
| CCNC(=O)N(C)C1CC(CS(=O)(=O)NNC(=O)c2cc(-c3cn(C)cn3)cc(Cl)c2F)C1 (centres unmarked) [Compound I-428] | < 10 |
| Cn1cnc(-c2cc(Cl)c(F)c(C(=O)NNS(=O)(=O)C3CCCN(CC(F)(F)F)C3)c2)c1 (centres unmarked) [Compound I-456] | 10 to 50 |
| CC(C)Oc1ccc(S(=O)(=O)NNC(=O)c2cc(-c3cn(C)cn3)cc(Cl)c2F)c(F)c1 [Compound I-439] | < 10 |
| CC([C@H]1CC[C@@H](NC(=O)OC(C)(C)C)CC1)S(=O)(=O)NNC(=O)c1cc(-c2cn(C)cn2)cc(Cl)c1F (some centres unmarked) [Compound I-446] | < 10 |
| Cn1cnc(-c2cc(Cl)c(F)c(C(=O)NNS(=O)(=O)c3cccc(O)c3)c2)c1 [Compound I-429] | < 10 |
| COc1ccc(S(=O)(=O)NNC(=O)c2cc(-c3cn(C)cn3)cc(Cl)c2F)cc1O [Compound I-459] | < 10 |
| CC([C@H]1CC[C@H](NC(=O)OC(C)(C)C)CC1)S(=O)(=O)NNC(=O)c1cc(-c2cn(C)cn2)cc(Cl)c1F (some centres unmarked) [Compound I-447] | < 10 |
| Cn1cnc(-c2cc(Cl)c(F)c(C(=O)NNS(=O)(=O)c3cc(O)ccc3F)c2)c1 [Compound I-453] | < 10 |
| CN(C)CCOc1cccc(S(=O)(=O)NNC(=O)c2cc(-c3cn(C)cn3)cc(Cl)c2F)c1 [Compound I-432] | < 10 |
| Cn1cnc(-c2cc(Cl)c(F)c(C(=O)NNS(=O)(=O)c3ccc(F)cc3F)c2)c1 [Compound I-423] | < 10 |
| CO[C@@H]1CCCC[C@@H]1CS(=O)(=O)NNC(=O)c1cc(-c2cn(C)cn2)cc(Cl)c1F [Compound I-435] | < 10 |
| COc1ccc(S(=O)(=O)NNC(=O)c2cc(-c3cn(C)cn3)cc(Cl)c2F)c(F)c1O [Compound I-465] | < 10 |

same assay, conditions: Table 5

| SMILES | IC50 [µM] |
| --- | --- |
| Cc1cccc(-c2cc(Cl)c(F)c(C(=O)NNS(=O)(=O)CCCN(C)Cc3ccccc3)c2)c1 [Compound A-18] | > 100 |
| Cc1cccc(-c2cc(C)c(F)c(C(=O)NNS(=O)(=O)CC3CCN(C(=O)OC(C)(C)C)C3)c2)c1 (centres unmarked) [Compound A-2] | > 100 |
| Cc1cccc(-c2cc(Cl)c(F)c(C(=O)NNS(=O)(=O)C[C@@H]3CCCNC3)c2)c1 [Compound A-10] | > 100 |
| Cc1cccc(-c2cc(Cl)c(F)c(C(=O)NNS(=O)(=O)CC3CN(C(=O)OC(C)(C)C)CCO3)c2)c1 (centres unmarked) [Compound A-4] | ≤ 10 |
| Cc1cccc(-c2cc(C)c(F)c(C(=O)NNS(=O)(=O)CC3CCNC3)c2)c1 (centres unmarked) [Compound A-3] | > 100 |
| Cc1cccc(-c2cc(C)c(F)c(C(=O)NNS(=O)(=O)CC3CCCNC3)c2)c1 (centres unmarked) [Compound A-6] | > 100 |
| Cc1cccc(-c2cc(Cl)c(F)c(C(=O)NNS(=O)(=O)CC3CN(C)CCO3)c2)c1 (centres unmarked) [Compound A-11] | ≤ 10 |
| Cc1cccc(-c2cc(Cl)c(F)c(C(=O)NNS(=O)(=O)C[C@H]3CCCNC3)c2)c1 [Compound A-7] | > 100 |
| CCN1CCCC(CS(=O)(=O)NNC(=O)c2cc(-c3cccc(C)c3)cc(Cl)c2F)C1 (centres unmarked) [Compound A-9] | > 100 |
| Cc1cccc(-c2cc(Cl)c(F)c(C(=O)NNS(=O)(=O)CC3CCCN(C)C3)c2)c1 (centres unmarked) [Compound A-8] | > 100 |
| Cc1cccc(-c2cc(Cl)c(F)c(C(=O)NNS(=O)(=O)CC3CNCCO3)c2)c1 (centres unmarked) [Compound A-5] | 10 to 50 |
| Cc1c(-c2ccccc2)ccc(F)c1C(=O)NNS(=O)(=O)c1ccc(Cl)cc1 [Compound A-1] | 10 to 50 |
